Assay results from patent US20240116946A1 (Gilead Sciences, Inc., priority 2022, published 2024).
Like-named read-outs stand apart in the source and are kept apart here.

Columns and labels:
[1] = system: SARS-CoV-2-NLuc; test: microbe, parasite or virus in culture; format: cell-based, SARS Coronavirus 2
[2] = target: recombinant SARS-CoV-2 Main protease (Mpro) (Severe acute respiratory syndrome coronavirus 2 (2019-nCoV) (SARS-CoV-2), UniProt P0DTD1); test: Cov Mpro Biochemical IC50 Assay; details: read-out: MPro IC50
[3] = Severe acute respiratory syndrome coronavirus, 48 h, read-out: MPro EC50
[4] = recombinant SARS-CoV-2 Mpro 7.5 nM, fluorogenic peptide substrate 40 μM
[5] = recombinant SARS-CoV-2 Mpro, fluorogenic peptide substrate
[6] = Severe acute respiratory syndrome coronavirus, 48 h; read-out: MPro EC50

SMILES	EC50 [1, 3]	IC50 [2, 4]	IC50 [2, 5]	EC50 ([1]; read-out: MPro EC50)	EC50 [1, 6]
COc1cc(-c2cc3[nH]c(=O)n(-c4cncc(C)c4Cl)c(=O)c3s2)c(Cl)cc1F [Example 1080]	36 nM	20.4 nM	–	–	–
COc1cc(-c2cc3c(s2)c(=O)n(-c2cncc4cccc(F)c24)c(=O)n3CC#N)c(Cl)cc1F [Example 703]	3.74 nM	3.58 nM	–	–	–
NC(=O)c1cc(-c2cccc(Cl)c2-c2ccc3c(=O)n(-c4cncc5ccccc45)c(=O)[nH]c3c2)ccc1F [Example 260]	10.3 nM	–	15.3 nM	–	–
COc1cc(-c2cc3[nH]c(=O)n(-c4cncc5[nH]nc(C(F)(F)F)c45)c(=O)c3s2)c(Cl)cc1F [Example 1045, 6-(2-chloro-4-fluoro-5-methoxyphenyl)-3-(3-(trifluoromethyl)-1H-pyrazolo[3,4-c]pyridin-4-yl)thieno[3,2-d]pyrimidine-2,4(1H,3H)-dione]	> 1000 nM	141 nM	–	–	–
O=c1[nH]c2cc(-c3ccccc3Cl)sc2c(=O)n1-c1cncc2cccnc12 (single isomer, unassigned) [Example 463, 6-(2-chlorophenyl)-3-(1,6-naphthyridin-8-yl)thieno[3,2-d]pyrimidine-2,4(1H,3H)-dione]	–	202 nM	–	464 nM	–
COc1cc(-c2cc3c(s2)c(=O)n(-c2cncc4cnn(C)c24)c(=O)n3CCC#N)c(C#N)cc1F [Example 999, 2-(1-(2-cyanoethyl)-3-(1-methyl-1H-pyrazolo[4,3-c]pyridin-7-yl)-2,4-dioxo-1,2,3,4-tetrahydrothieno[3,2-d]pyrimidin-6-yl)-5-fluoro-4-methoxybenzonitrile]	–	7.15 nM	–	–	15.7 nM
COCCOc1c(C)cncc1-n1c(=O)[nH]c2cc(-c3ccccc3Cl)sc2c1=O [Example 214]	–	–	11.1 nM	–	20.1 nM
COc1cc(-c2cc3c(s2)c(=O)n(-c2cncc4nn(C)c(C)c24)c(=O)n3CCC#N)c(Cl)cc1F [Example 926, 3-(6-(2-chloro-4-fluoro-5-methoxyphenyl)-3-(2,3-dimethyl-2H-pyrazolo[3,4-c]pyridin-4-yl)-2,4-dioxo-3,4-dihydrothieno[3,2-d]pyrimidin-1(2H)-yl)propanenitrile]	8.89 nM	6.74 nM	–	–	–
Cn1ncc2cncc(-n3c(=O)c4sc(-c5cc(F)ccc5C#N)cc4n(CCC#N)c3=O)c21 [Example 778]	179 nM	19 nM	–	–	–
O=c1[nH]c2cc(-c3c(Cl)cccc3-c3ccc4c(c3)CCS(=O)(=O)N4)ccc2c(=O)n1-c1cncc2ccccc12 [Example 327]	96.3 nM	–	13.3 nM	–	–
O=c1[nH]c2cc(-c3ccccc3Cl)sc2c(=O)n1-c1cnccc1C1CCOCC1 [Example 138]	144 nM	–	16.2 nM	–	–
O=c1[nH]c2cc(-c3c(Cl)cccc3-c3cn(C4CC4)nn3)ccc2c(=O)n1-c1cncc2ccccc12 [Example 160, 7-(2-chloro-6-(1-cyclopropyl-1H-1,2,3-triazol-4-yl)phenyl)-3-(isoquinolin-4-yl)quinazoline-2,4(1H,3H)-dione]	56.8 nM	–	17.2 nM	–	–
COc1ccc(Cl)c(-c2cc3[nH]c(=O)n(-c4cncc5c(F)cccc45)c(=O)c3s2)c1 [Example 585]	29.3 nM	10.1 nM	–	–	–
COc1cc(-c2cc3[nH]c(=O)n(-c4cncc5cnn(C)c45)c(=O)c3cc2F)c(C#N)cc1F [Example 766]	102 nM	18.9 nM	–	–	–
COc1ccc(C#N)c(-c2cc3[nH]c(=O)n(-c4cncc5ncsc45)c(=O)c3s2)c1 [Example 484]	482 nM	38.9 nM	–	–	–
COc1cc(-c2cc3c(s2)c(=O)n(-c2cncc4nc(-c5ccc(F)cc5)n(C)c24)c(=O)n3CCC#N)c(Cl)cc1F [Example 758]	142 nM	18.9 nM	–	–	–
O=c1c2sc(-c3ccccc3Cl)cc2n(Cc2cccnc2)c(=O)n1-c1cncc2ccccc12 [Example 156]	171 nM	–	167 nM	–	–
COc1cc(-c2cc3c(s2)c(=O)n(-c2cncc4ccsc24)c(=O)n3CCC#N)c(Cl)cc1F [Example 654]	2.42 nM	3.87 nM	–	–	–

SMILES	EC50 [1, 3]	IC50 [2, 4]	IC50 [2, 5]	EC50 ([1]; read-out: MPro EC50)	EC50 [1, 6]
N#Cc1cc(-c2cc3[nH]c(=O)n(-c4cncc5ccccc45)c(=O)c3s2)c(Cl)cc1F [Example 646]	11800 nM	1900 nM	–	–	–
C#Cc1cccc(Cl)c1-c1ccc2c(=O)n(-c3cncc4ccccc34)c(=O)[nH]c2c1 [Example 159, 7-(2-chloro-6-ethynyl-phenyl)-3-(4-isoquinolyl)-1H-quinazoline-2,4-dione]	335 nM	–	988 nM	–	–
COc1cc(-c2cc3[nH]c(=O)n(-c4cncc5ccccc45)c(=O)c3s2)c(Cl)cc1Cl [Example 342]	6.76 nM	–	4.49 nM	–	–
COc1cnc(Cl)c(-c2ccc3c(=O)n(-c4cncc5ccccc45)c(=O)[nH]c3c2)c1 [Example 257]	1150 nM	–	500 nM	–	–
Cn1ncc2cncc(-n3c(=O)c4sc(-c5ccc(F)cc5C#N)cc4n(CCC#N)c3=O)c21 [Example 785]	137 nM	37.8 nM	–	–	–
COc1ccc2cncc(-n3c(=O)[nH]c4cc(-c5c(Cl)cccc5-c5cc(C)c6ncnn6c5)sc4c3=O)c2c1 [Example 562, 6-[2-chloro-6-(8-methyl-[1,2,4]triazolo[1,5-a]pyridin-6-yl)phenyl]-3-(6-methoxy-4-isoquinolyl)-1H-thieno[3,2-d]pyrimidine-2,4-dione]	5.06 nM	< 2.54 nM	–	–	–
COc1ccc(C#N)c(-c2ccc3c(=O)n(-c4cncc5ccccc45)c(=O)[nH]c3c2)c1 (single isomer, unassigned) [Example 570, 2-[3-(4-isoquinolyl)-2,4-dioxo-1H-quinazolin-7-yl]-4-methoxy-benzonitrile]	–	1310 nM	–	700 nM	–
COc1cc(-c2cc3[nH]c(=O)n(-c4cncc5ccccc45)c(=O)c3s2)c(C#N)cc1F [Example 537]	19.2 nM	6.15 nM	–	–	–
COc1cc(-c2cc3c(s2)c(=O)n(-c2cc(C)cnc2F)c(=O)n3CCC#N)c(Cl)cc1F [Example 770]	–	6.12 nM	–	–	4.8 nM
N#CCCn1c(=O)n(-c2cncc(C3CC4(COC4)C3)c2)c(=O)c2sc(-c3ccccc3Cl)cc21 [Example 1064, 3-(3-(5-(2-oxaspiro[3.3]heptan-6-yl)pyridin-3-yl)-6-(2-chlorophenyl)-2,4-dioxo-3,4-dihydrothieno[3,2-d]pyrimidin-1(2H)-yl)propanenitrile]	–	24 nM	–	–	713 nM
Cn1ncc2cncc(-n3c(=O)c4sc(-c5c(Cl)cccc5-c5cncc(C#N)c5)cc4n(CCC#N)c3=O)c21 [Example 934]	49 nM	8.3 nM	–	–	–
COCc1ccccc1-c1cc2[nH]c(=O)n(-c3cncc4ccccc34)c(=O)c2s1 [Example 17]	160 nM	–	35.1 nM	–	–
O=c1[nH]c2cc(-c3cccnc3)ccc2c(=O)n1-c1cncc2ccccc12 [Example 43]	> 50000 nM	–	3120 nM	–	–
O=c1[nH]c2cc(-c3ccccc3Cl)sc2c(=O)n1-c1cncc2cccc(Cl)c12 [Example 600]	18.1 nM	5.29 nM	–	–	–
COc1ccc(Cl)c(-c2cc3[nH]c(=O)n(-c4cncc5ccoc45)c(=O)c3s2)c1 [Example 493]	33.5 nM	7.94 nM	–	–	–
COc1cccc(C#N)c1-c1ccc2c(=O)n(-c3cncc4ccccc34)c(=O)[nH]c2c1 [Example 71]	141 nM	–	76.4 nM	–	–
O=c1[nH]c2cc(-c3ccccc3Cl)sc2c(=O)n1-c1cncc(C2CC2)c1 [Example 137]	40.1 nM	–	15 nM	–	–
